# Source: patent US11304964B2, “Bolaamphiphilic compounds, compositions and uses thereof” (priority 2012, dated 2022)
# Tests used:
# [1] = Pharmacokinetic studies, first set (LC-MS, blood and brain); details: for half-life: mouse, iv, 34 mg/kg
# Procedure: The chromatographic separation was performed with an HPLC Agilent 1100 instrument and Auto-sampler G 1329A ALS 1200 Series with Frizzier G1330B FC/ALS Therm, at a temperature of 4° C., using a reverse phase Kromasile 100A C18 250×2.0 (5 μm) column at 30° C. under gradient conditions. The mobile phase consisted of two solvents: (A) acetonitrile and (B) 0.5% formic acid in water and was operated under the following conditions:
# The MS/MS detector was an Ion Trap MS Esquire 3000 Plus (Bruker Daltonics), operating in the ESI positive polarity mode. The internal standard was 2′-deoxyadenosine 5′-phosphate.
# After establishing conditions for the LC-MS as described above, brain homogenate and blood samples were prepared and spiked known concentrations of tenofovir and a fixed concentration of the internal standard into the blood samples and the brain homogenates. The specimens were then processed by adding 180 μL of 10% Tri Chloro Acetic acid (TCA) to 300 μL of the homogenate followed by centrifugation to obtain a clear solution of blood or brain extracts. The supernatant that was obtained by the centrifugation was neutralized with 200 μL of 1% NaOH. The MS signals that were obtained from each sample were plotted as a function of the spiked tenofovir concentration to obtain calibration curves for the blood (FIG. 17A) and for the brain (FIG. 17B).
# For the PK studies, vesicles optimized as described above were used for the delivery of tenofovir into the brain. […] The vesicles were prepared by film hydration followed by sonication using a HEPES hydration buffer.
# In the first set of the PK experiments, mice (average weight was 22 g per mouse) were injected with vesicles that contained encapsulated tenofovir or with empty vesicles followed by free tenofovir (4 mice per group). […] The dose of the total tenofovir was 34 mg/kg, out of which 6.8 mg/kg was encapsulated (only when encapsulated tenofovir was injected). […] Before the injection of the test material, mice were pretreated with 0.5 mg/kg pyridostigmine to inhibit choline esterases in the blood (unless otherwise stated), since vesicles that contain GLH-20 release their content in presence of choline esterases. At various times after the injection (15, 30, 75, 120 and 240 min), blood samples were withdrawn and the mice were perfused with 10 mL PBS and sacrificed. Brains were immediately removed after sacrificing the mice and brain homogenates were prepared by homogenizing the brains in PBS (4 mL PBS per gram brain). Extracts of the homogenates were then prepared by adding 180 μL of 10% TCA to 300 μL of the homogenate followed by centrifugation to obtain a clear solution of the brain extract. The supernatant that was obtained by the centrifugation was neutralized with 200 μL of 1% NaOH. Tenofovir concentration in the clear brain extract was determined by LC-MS, using the calibration curve which is described above in FIG. 17. The blood samples were centrifuged to separate the serum from the blood cells and processed in the same way as the brain homogenates.
# [2] = Tenofovir encapsulation in bolaamphiphile vesicles (UV absorbance after Sephadex G50 separation); type: physicochemical
# Procedure: Bolaamphiphiles, cholesterol, and CHMES (2:1:1 mole ratio) are dissolved in chloroform or a suitable solvent. […] The solvents are evaporated under vacuum and the resultant thin films are hydrated in 0.2 mg/mL CF solution in PBS and probe-sonicated (Vibra-Cell VCX130 sonicator, Sonics and Materials Inc., Newtown, Conn., USA) with amplitude 20%, pulse on: 15 sec, pulse off: 10 sec to achieve homogenous vesicle dispersions. Vesicle size and zeta potential were determined using a Zetasizer Nano ZS (Malvern Instruments, UK).
# Methods were established to determine quantitatively the amount of the encapsulated tenofovir based on a UV absorption and determined the percent of tenofovir encapsulation by various vesicle formulations (data not shown). […] One objective of this work was to achieve the maximum amount of tenofovir encapsulated per vesicle along with a minimum loss of the non-encapsulated drug. Accordingly, several parameters were examined, such as varying the ratio among the vesicle components, changing the ratio of tenofovir to bolaamphiphiles, varying the pH of the hydration solution and also adding to the formulation additional additives, in the attempt to increase the encapsulation capacity of the vesicles.
# In particular, in order to maximize tenofovir encapsulation the following parameters were studied: (1) tenofovir to GLH ratio; (2) adjusting the concentrations of cholestyrl hemisuccinate (CHEM) and cholesterol (CHOL), components that are used in the vesicle formulation, (3) examining several buffers and pHs in the encapsulation process, (4) time of sonication, and (5) tenofovir concentration, and (6) addition of stearyl amine to the vesicle formulation to enhance encapsulation by complexation with tenofovir.
# The vesicles were prepared from formulations with and without SA and the non-encapsulated tenofovir (free tenofovir) was separated from the encapsulated tenofovir on Sephadex G50 column and the absorbance at 260 nm of each fraction collected from the column was read.
# [3] = HEPES pH 7.5, GLH 19/20 (2:1) 10 mg/ml, SA 1.25 mg/ml, tenofovir 5 mg/ml, standard CHOL/CHEMS
# [4] = HEPES pH 7.5, GLH 19/20 (2:1) 10 mg/ml, SA 2.5 mg/ml, tenofovir 5 mg/ml, standard CHOL/CHEMS
# [5] = HEPES pH 7.5, GLH 19/20 (2:1) 10 mg/ml, SA 3.5 mg/ml, tenofovir 5 mg/ml, standard CHOL/CHEMS
# [6] = HEPES pH 7.5, GLH 19/20 (2:1) 10 mg/ml, tenofovir 1 mg/ml, standard CHOL/CHEMS
# [7] = HEPES pH 7.5, GLH 19/20 (2:1) 10 mg/ml, tenofovir 2 mg/ml, ½ the standard amount of cholesterol and cholesteryl hemisuccinate
# [8] = HEPES pH 7.5, GLH 19/20 (2:1) 15 mg/ml, SA 2.5 mg/ml, tenofovir 5 mg/ml, standard CHOL/CHEMS
# [9] = HEPES pH 7.5, GLH 19/20 (2:1) 15 mg/ml, tenofovir 1 mg/ml, standard CHOL/CHEMS
# [10] = HEPES pH 7.5, GLH 19/20 (2:1) 15 mg/ml, tenofovir 2 mg/ml, ½ the standard amount of cholesterol and cholesteryl hemisuccinate
# [11] = HEPES pH 8, GLH 19/20 (2:1) 15 mg/ml, SA 2.5 mg/ml, tenofovir 5 mg/ml, standard CHOL/CHEMS
# [12] = HEPES pH 8, GLH 19/20 (2:1) 15 mg/ml, tenofovir 1 mg/ml, standard CHOL/CHEMS
# [13] = TRIS pH 8, GLH 19/20 (2:1) 10 mg/ml, SA 2.5 mg/ml, tenofovir 5 mg/ml, standard CHOL/CHEMS
# [14] = TRIS pH 8, GLH 19/20 (2:1) 10 mg/ml, tenofovir 1 mg/ml, standard CHOL/CHEMS
# [15] = TRIS pH 8, GLH 19/20 (2:1) 10 mg/ml, tenofovir 2 mg/ml, standard CHOL/CHEMS
# [16] = TRIS pH 8, GLH 19/20 (2:1) 10 mg/ml, tenofovir 5 mg/ml, standard CHOL/CHEMS
# [17] = TRIS pH 8, GLH 19/20 (2:1) 20 mg/ml, tenofovir 5 mg/ml, standard CHOL/CHEMS
smiles,measurement,setting,value
"C[C@H](Cn1cnc2c(N)ncnc21)OCP(=O)(O)O [tenofovir, ({[(2R)-1-(6-amino-9H-purin-9-yl)propan-2-yl]oxy}methyl)phosphonic acid]",tenofovir concentration in the brain,[1]; mice injected with empty vesicles and then free tenofovir,not detected
same,half-life,"[1]; brain, apparent half-life of tenofovir in the brain, mice pretreated with pyrido, tenofovir encapsulated in GLH-19 + GLH-20 vesicles, i.v.",~40 min
same,half-life,"[1]; serum, actual half-life of the encapsulated tenofovir in the blood, inferred, encapsulated tenofovir only 20% of injected",> 20 min
same,half-life,"[1]; serum, half-life of tenofovir in the blood (apparent), mice i.v., total tenofovir 34 mg/kg of which 6.8 mg/kg encapsulated, reflects free and encapsulated tenofovir",~20 min
same,persistence of tenofovir in the brain,"[1]; tenofovir encapsulated in GLH-19 vesicles, i.v. mice",did not persist long in the brain
same,% tenofovir encapsulation,[2]; [3],15.9%
same,Ratio of tenofovir encapsulated to bolaamphiphiles,[2]; [3],0.062 mg/mg
same,% tenofovir encapsulation,[2]; [4],21.4%
same,Ratio of tenofovir encapsulated to bolaamphiphiles,[2]; [4],0.107 mg/mg
same,% tenofovir encapsulation,"[2]; HEPES pH 7.5, GLH 19/20 (2:1) 10 mg/ml, SA 2.5 mg/ml, tenofovir 5 mg/ml, ½ the standard amount of cholesterol and cholesteryl hemisuccinate",**22%
same,% tenofovir encapsulation,[2]; [5],30.9%
same,Ratio of tenofovir encapsulated to bolaamphiphiles,[2]; [5],0.155 mg/mg
same,% tenofovir encapsulation,[2]; [6],17.4%
same,mg tenofovir encapsulated/mg bola,[2]; [6],0.026 mg tenofovir encapsulated/mg bola
same,mg tenofovir encapsulated/mg bola,"[2]; HEPES pH 7.5, GLH 19/20 (2:1) 10 mg/ml, tenofovir 2 mg/ml, standard CHOL/CHEMS",0.024 mg tenofovir encapsulated/mg bola
same,% tenofovir encapsulation,[2]; [7],**16.5%
same,mg tenofovir encapsulated/mg bola,[2]; [7],**0.033 mg tenofovir encapsulated/mg bola
same,% tenofovir encapsulation,"[2]; HEPES pH 7.5, GLH 19/20 (2:1) 10 mg/ml, tenofovir 5 mg/ml, standard CHOL/CHEMS",7.8%
same,% tenofovir encapsulation,"[2]; HEPES pH 7.5, GLH 19/20 (2:1) 10 mg/ml, tenofovir 7.5 mg/ml, standard CHOL/CHEMS",3.8%
same,% tenofovir encapsulation,[2]; [8],18.6%
same,Ratio of tenofovir encapsulated to bolaamphiphiles,[2]; [8],0.08 mg/mg
same,% tenofovir encapsulation,[2]; [9],38.6%
same,mg tenofovir encapsulated/mg bola,[2]; [9],0.026 mg tenofovir encapsulated/mg bola
same,% tenofovir encapsulation,"[2]; HEPES pH 7.5, GLH 19/20 (2:1) 15 mg/ml, tenofovir 2 mg/ml, standard CHOL/CHEMS","18.4, %"
same,% tenofovir encapsulation,[2]; [10],**22.5%
same,mg tenofovir encapsulated/mg bola,[2]; [10],**0.033 mg tenofovir encapsulated/mg bola
same,% tenofovir encapsulation,[2]; [11],23%
same,Ratio of tenofovir encapsulated to bolaamphiphiles,[2]; [11],0.077 mg/mg
same,% tenofovir encapsulation,[2]; [12],31.2%
same,mg tenofovir encapsulated/mg bola,[2]; [12],0.021 mg tenofovir encapsulated/mg bola
same,% tenofovir encapsulation,"[2]; TRIS pH 8, GLH 19/20 (2:1) 5 mg/ml, tenofovir 1 mg/ml in hydration solution, standard CHOL/CHEMS",4%
same,mg tenofovir encapsulated/mg bola,"[2]; TRIS pH 8, GLH 19/20 (2:1) 5 mg/ml, tenofovir 1 mg/ml, standard CHOL/CHEMS",0.008 mg tenofovir encapsulated/mg bola
same,% tenofovir encapsulation,[2]; [13],12.7%
same,Ratio of tenofovir encapsulated to bolaamphiphiles,[2]; [13],0.064 mg/mg
same,% tenofovir encapsulation,[2]; [14],11%
same,mg tenofovir encapsulated/mg bola,[2]; [14],0.011 mg tenofovir encapsulated/mg bola
same,% tenofovir encapsulation,[2]; [15],9%
same,mg tenofovir encapsulated/mg bola,[2]; [15],0.018 mg tenofovir encapsulated/mg bola
same,% tenofovir encapsulation,[2]; [16],6%
same,mg tenofovir encapsulated/mg bola,[2]; [16],0.03 mg tenofovir encapsulated/mg bola
same,mg tenofovir encapsulated/mg bola,"[2]; TRIS pH 8, GLH 19/20 (2:1) 15 mg/ml, tenofovir 1 mg/ml, standard CHOL/CHEMS",0.016 mg tenofovir encapsulated/mg bola
same,% tenofovir encapsulation,"[2]; TRIS pH 8, GLH 19/20 (2:1) 15 mg/ml, tenofovir 1 mg/ml, standard CHOL/CHEMS, ±SEM",24.5 ± 2.1%
same,mg tenofovir encapsulated/mg bola,"[2]; TRIS pH 8, GLH 19/20 (2:1) 15 mg/ml, tenofovir 2 mg/ml, standard CHOL/CHEMS",0.03 mg tenofovir encapsulated/mg bola
same,% tenofovir encapsulation,"[2]; TRIS pH 8, GLH 19/20 (2:1) 15 mg/ml, tenofovir 2 mg/ml, standard CHOL/CHEMS, ±SEM",21 ± 2.1%
same,mg tenofovir encapsulated/mg bola,"[2]; TRIS pH 8, GLH 19/20 (2:1) 15 mg/ml, tenofovir 5 mg/ml, standard CHOL/CHEMS",0.03 mg tenofovir encapsulated/mg bola
same,% tenofovir encapsulation,"[2]; TRIS pH 8, GLH 19/20 (2:1) 15 mg/ml, tenofovir 5 mg/ml, standard CHOL/CHEMS, ±SEM",9 ± 1.4%
same,mg tenofovir encapsulated/mg bola,"[2]; TRIS pH 8, GLH 19/20 (2:1) 20 mg/ml, tenofovir 1 mg/ml, standard CHOL/CHEMS",0.02 mg tenofovir encapsulated/mg bola
same,% tenofovir encapsulation,"[2]; TRIS pH 8, GLH 19/20 (2:1) 20 mg/ml, tenofovir 1 mg/ml, standard CHOL/CHEMS, ±SEM",31.4 ± 4.5%
same,mg tenofovir encapsulated/mg bola,"[2]; TRIS pH 8, GLH 19/20 (2:1) 20 mg/ml, tenofovir 2 mg/ml, standard CHOL/CHEMS",0.022 mg tenofovir encapsulated/mg bola
same,% tenofovir encapsulation,"[2]; TRIS pH 8, GLH 19/20 (2:1) 20 mg/ml, tenofovir 2 mg/ml, standard CHOL/CHEMS, ±SEM",22.5 ± 3.5%
same,% tenofovir encapsulation,[2]; [17],9.3%
same,mg tenofovir encapsulated/mg bola,[2]; [17],0.023 mg tenofovir encapsulated/mg bola
same,% of the added tenofovir encapsulated,"[2]; optimal formulation for PK: 10 mg GLH 19/20 2/1, 1 mg GLH-55b, 2.5 mg stearyl amine, 5 mg tenofovir per mL, HEPES",20%
same,amount of the encapsulated tenofovir,[2]; optimal formulation used in first set of PK experiments,1 mg/mL vesicles
same,percent of tenofovir encapsulation,"[2]; various vesicle formulations, conditions that yielded maximum encapsulation (before optimization)",18-20%
